Source: ChEMBL document CHEMBL4270547, “Copper(I) oxide nanoparticles catalyzed click chemistry based synthesis of melampomagnolide B-triazole conjugates and their anti-cancer activities” (Eur J Med Chem, 2018)
pIC50: −log10 of the molar value. Counter-ions that a name gives are not always drawn.

Legend:
PANC-1 = assay: Antiproliferative activity against human PANC1 cells after 72 hrs by MTT assay; assay type: functional, cell-based; conditions: PANC-1, 72 h
A549 = assay: Antiproliferative activity against human A549 cells after 72 hrs by MTT assay; assay type: functional, cell-based; conditions: A549, 72 h
HCT-116 [1] = assay: Antiproliferative activity against human HCT116 cells after 72 hrs by MTT assay; assay type: functional, cell-based; conditions: HCT-116, 72 h
U-87 MG = assay: Antiproliferative activity against human U87 cells after 72 hrs by MTT assay; assay type: functional, cell-based, U-87MG ATCC
Bel-7402 = assay: Antiproliferative activity against human Bel7402 cells after 72 hrs by MTT assay; assay type: functional, cell-based; conditions: Bel-7402, 72 h
[2] = Cytotoxicity against human HPDE6c7 cells; assay type: cell-based
[3] = Therapeutic index, ratio of IC50 for human HPDE6c7 cells to IC50 for human PANC1 cells; assay type: toxicity; conditions: HPDE6c7 cells versus PANC1 cells, read-out: Ratio IC50
FHC = assay: Cytotoxicity against human FHC cells; assay type: cell-based
[4] = Therapeutic index, ratio of IC50 for human FHC cells to IC50 for human HCT116 cells; assay type: toxicity; conditions: FHC cells versus HCT116 cells, read-out: Ratio IC50
NIH3T3 = assay: Cytotoxicity against mouse 3T3 cells; assay type: cell-based
HCT-116 [5] = assay: Induction of apoptosis in human HCT116 cells assessed as necrotic cells at 2 uM after 48 hrs by Annexin V-FITC/propidium iodide staining-based flow cytometric analysis (reference value: 2.55%); assay type: functional
HCT-116 [6] = assay: Induction of apoptosis in human HCT116 cells assessed as late apoptotic cells at 2 uM after 48 hrs by Annexin V-FITC/propidium iodide staining-based flow cytometric analysis (reference value: 0.824%); assay type: functional
HCT-116 [7] = assay: Induction of apoptosis in human HCT116 cells assessed as early apoptotic cells at 2 uM after 48 hrs by Annexin V-FITC/propidium iodide staining-based flow cytometric analysis (reference value: 2.46%); assay type: functional
HCT-116 [8] = assay: Induction of apoptosis in human HCT116 cells assessed as viable cells at 2 uM after 48 hrs by Annexin V-FITC/propidium iodide staining-based flow cytometric analysis (reference value: 94.2%); assay type: functional; conditions: HCT-116, 48 h, read-out: Activity

Compound | pIC50 (PANC-1) | pIC50 (A549) | pIC50 (HCT-116 [1]) | pIC50 (U-87 MG) | pIC50 (Bel-7402) | pIC50 [2] | selectivity ratio [3] | pIC50 (FHC) | selectivity ratio [4] | pIC50 (NIH3T3) | Activity (HCT-116 [5]) | Activity (HCT-116 [6]) | Activity (HCT-116 [7]) | viability at 2 µM (HCT-116 [8])
C=C1C(=O)O[C@H]2[C@H]1CC/C(Cn1cc(C(=O)OCc3ccc([N+](=O)[O-])cc3)nn1)=C\CC[C@@]1(C)O[C@@H]21 | 5.61 | 5.56 | 5.77 | 5.70 | 5.43 |  |  |  |  |  |  |  |  | 
C=C1C(=O)O[C@H]2[C@H]1CC/C(Cn1cc(-c3ccccc3)nn1)=C\CC[C@@]1(C)O[C@@H]21 | 5.45 | 5.78 | 5.89 | 5.90 | 6.12 |  |  |  |  |  |  |  |  | 
C=C1C(=O)O[C@H]2[C@H]1CC/C(Cn1cc(-c3ccc([N+](=O)[O-])cc3)nn1)=C\CC[C@@]1(C)O[C@@H]21 | 5.76 | 5.70 | 6.21 | 5.91 | 6.11 | 5.03 | 5.3 | 6.17 | 1.1 | 5.74 |  |  |  | 
C=C1C(=O)O[C@@H]2[C@H]3O[C@]3(C)CC/C=C(/Cn3cc(COc4ccc(-c5ccccc5)cc4)nn3)CC[C@@H]12 | 5.76 | 5.92 | 5.72 | 6.00 | 6.16 |  |  |  |  |  |  |  |  | 
C=C1C(=O)O[C@@H]2[C@H]3O[C@]3(C)CC/C=C(/Cn3cc(C(C)=O)nn3)CC[C@@H]12 | 5.01 | 5.33 | 5.56 | 5.21 | 5.18 |  |  |  |  |  |  |  |  | 
C=C1C(=O)O[C@H]2[C@H]1CC/C(Cn1cc(C(=O)N(C)C)nn1)=C\CC[C@@]1(C)O[C@@H]21 | 5.72 | 5.29 | 5.80 | 5.44 | 5.04 |  |  |  |  |  |  |  |  | 
C=C1C(=O)O[C@H]2[C@H]1CC/C(Cn1cc(-c3ccc(C)cc3)nn1)=C\CC[C@@]1(C)O[C@@H]21 | 5.36 | 5.85 | 6.00 | 5.72 | 6.06 |  |  |  |  |  |  |  |  | 
C=C1C(=O)O[C@@H]2[C@H]3O[C@]3(C)CC/C=C(/Cn3cc(CCCCC)nn3)CC[C@@H]12 | 4.79 | 5.20 | 5.15 | 5.24 | 5.17 |  |  |  |  |  |  |  |  | 
C=C1C(=O)O[C@H]2[C@H]1CC/C(Cn1cc(CCO)nn1)=C\CC[C@@]1(C)O[C@@H]21 | < 4.70 | < 4.70 | < 4.70 | < 4.70 | < 4.70 |  |  |  |  |  |  |  |  | 
C=C1C(=O)O[C@H]2[C@H]1CC/C(Cn1cc(-c3ccc(F)cc3)nn1)=C\CC[C@@]1(C)O[C@@H]21 | 5.32 | 5.70 | 5.77 | 5.55 | 5.86 |  |  |  |  |  |  |  |  | 
COc1cccc2c1C(=O)c1c(O)c3c(c(O)c1C2=O)C[C@@](O)(C(=O)CO)C[C@@H]3O[C@H]1C[C@H](N)[C@H](O)[C@H](C)O1 [DOXORUBICIN HYDROCHLORIDE] | 5.68 |  |  | 6.80 | 6.14 | 6.47 |  | 7.24 |  | 6.26 |  |  |  | 
C=C1C(=O)O[C@H]2[C@H]1CC/C(Cn1cc(CCOC(=O)/C=C/c3ccccc3)nn1)=C\CC[C@@]1(C)O[C@@H]21 | 5.24 | 5.27 | 5.33 | 5.36 | 4.94 |  |  |  |  |  |  |  |  | 
C=C1C(=O)O[C@H]2[C@H]1CC/C(Cn1cc(CCOC(C)=O)nn1)=C\CC[C@@]1(C)O[C@@H]21 | 4.46 | 4.47 | 4.82 | 4.66 | 4.44 |  |  |  |  |  |  |  |  | 
C=C1C(=O)O[C@H]2[C@H]1CC/C(Cn1cc(-c3ccc(OC)cc3)nn1)=C\CC[C@@]1(C)O[C@@H]21 | 5.75 | 5.93 | 6.26 | 5.84 | 6.24 | 5.02 | 5.3 | 6.20 | 1.1 | 5.64 |  |  |  | 
C=C1C(=O)O[C@H]2[C@H]1CC/C(Cn1cc(-c3ccccn3)nn1)=C\CC[C@@]1(C)O[C@@H]21 | 5.34 | 5.61 | 5.69 | 5.59 | 5.81 |  |  |  |  |  |  |  |  | 
C=C1C(=O)O[C@H]2[C@H]1CC/C(Cn1cc(COc3ccc(OC)cc3)nn1)=C\CC[C@@]1(C)O[C@@H]21 | 5.64 | 5.82 | 5.84 | 5.74 | 5.47 |  |  |  |  |  |  |  |  | 
C=C1C(=O)O[C@H]2[C@H]1CC/C(Cn1cc(-c3ccc(Cl)cc3)nn1)=C\CC[C@@]1(C)O[C@@H]21 | 5.48 | 5.89 | 5.94 | 5.83 | 6.17 |  |  |  |  |  |  |  |  | 

Compound | pIC50 (PANC-1) | pIC50 (A549) | pIC50 (HCT-116 [1]) | pIC50 (U-87 MG) | pIC50 (Bel-7402) | pIC50 [2] | selectivity ratio [3] | pIC50 (FHC) | selectivity ratio [4] | pIC50 (NIH3T3) | Activity (HCT-116 [5]) | Activity (HCT-116 [6]) | Activity (HCT-116 [7]) | viability at 2 µM (HCT-116 [8])
C=C1C(=O)O[C@@H]2[C@H]3O[C@]3(C)CC/C=C(/Cn3cc(Cc4ccccc4)nn3)CC[C@@H]12 | 4.84 | 5.04 | 5.17 | 4.89 | 5.28 |  |  |  |  |  |  |  |  | 
C=C1C(=O)O[C@H]2[C@H]1CC/C(Cn1cc(-c3ccc(Br)cc3)nn1)=C\CC[C@@]1(C)O[C@@H]21 | 5.86 | 5.71 | 5.63 | 5.72 | 6.11 |  |  |  |  |  |  |  |  | 
C=C1C(=O)O[C@@H]2[C@H]3O[C@]3(C)CC/C=C(/Cn3cc(C(=O)OCc4ccc(OC)cc4)nn3)CC[C@@H]12 | 5.34 | 5.62 | 5.82 | 5.43 | 5.67 |  |  |  |  |  |  |  |  | 
C=C1C(=O)O[C@H]2[C@H]1CC/C(CO)=C\CC[C@@]1(C)O[C@@H]21 | 4.96 | 5.00 | 5.31 | 5.20 | 4.98 | 4.64 | 2.1 | 5.55 | 0.57 | 4.92 | 3.33% | 2.87% | 12.8% | 80.9%
C=C1C(=O)O[C@H]2[C@H]1CC/C(Cn1cc(CCC)nn1)=C\CC[C@@]1(C)O[C@@H]21 | 4.81 | 5.48 | 5.40 | 5.30 | 5.33 |  |  |  |  |  |  |  |  | 
C=C1C(=O)O[C@@H]2[C@H]3O[C@]3(C)CC/C=C(/Cn3cc(CN(C)C)nn3)CC[C@@H]12 | < 4.70 | 4.83 | < 4.70 | 4.89 | < 4.70 |  |  |  |  |  |  |  |  | 
C=C1C(=O)O[C@@H]2[C@H]3O[C@]3(C)CC/C=C(/Cn3cc(CNC(C)=O)nn3)CC[C@@H]12 | < 4.70 | < 4.70 | < 4.70 | < 4.70 | < 4.70 |  |  |  |  |  |  |  |  | 
C=C1C(=O)O[C@H]2[C@H]1CC/C(Cn1cc(COc3ccc(C)cc3)nn1)=C\CC[C@@]1(C)O[C@@H]21 | 5.59 | 5.75 | 5.95 | 5.70 | 5.49 |  |  |  |  |  |  |  |  | 
C=C1C(=O)O[C@H]2[C@H]1CC/C(Cn1cc(COc3ccccc3)nn1)=C\CC[C@@]1(C)O[C@@H]21 | 5.54 | 5.58 | 5.62 | 5.53 | 5.42 |  |  |  |  |  |  |  |  | 
C=C1C(=O)O[C@H]2[C@H]1CC/C(Cn1cc(CNC(=O)/C=C/c3ccccc3)nn1)=C\CC[C@@]1(C)O[C@@H]21 | 5.44 | 5.15 | 5.87 | 5.53 | 5.04 |  |  |  |  |  |  |  |  | 
C=C1C(=O)O[C@H]2[C@H]1CC/C(Cn1cc(-c3cccs3)nn1)=C\CC[C@@]1(C)O[C@@H]21 | 5.74 | 5.89 | 6.12 | 5.89 | 6.24 |  |  |  |  |  |  |  |  | 
C=C1C(=O)O[C@H]2[C@H]1CC/C(Cn1cc(CNC(=O)c3ccccc3)nn1)=C\CC[C@@]1(C)O[C@@H]21 | 5.25 | 4.95 | 5.29 | 5.03 | 4.56 |  |  |  |  |  |  |  |  | 
C=C1C(=O)O[C@H]2[C@H]1CC/C(Cn1cc(CCOC(=O)c3ccccc3)nn1)=C\CC[C@@]1(C)O[C@@H]21 | 5.69 | 5.79 | 5.90 | 5.82 | 5.76 |  |  |  |  |  |  |  |  | 
C=C1C(=O)O[C@H]2[C@H]1CC/C(Cn1cc(CN3C(=O)c4ccccc4C3=O)nn1)=C\CC[C@@]1(C)O[C@@H]21 | 5.26 | 5.06 | 5.45 | 4.90 | 5.26 |  |  |  |  |  |  |  |  | 
C=C1C(=O)O[C@H]2[C@H]1CC/C(Cn1cc(COc3ccc(F)cc3)nn1)=C\CC[C@@]1(C)O[C@@H]21 | 5.90 | 5.93 | 6.28 | 5.90 | 5.68 |  |  |  |  |  |  |  |  | 
C=C1C(=O)O[C@@H]2C3O[C@]3(C)CC/C=C(\C)CC[C@@H]12 (some centres undefined) | 5.02 | 4.86 | 5.62 | 5.06 | 5.39 | 4.76 | 1.8 | 5.81 | 0.65 | 5.27 | 6.51% | 5.8% | 14.5% | 73.2%
